# Source: US20250122191A1, “COMPOUNDS AS BCL-2 INHIBITORS” (Fochon Biosciences, Ltd, priority 2021, published 2025)
# What was measured:
# [1] = tested on: Toledo cells; test: Cell proliferation assay (MTS), Toledo cells; format: cell-based; details: Homo sapiens, 72 h
# Experimental: MTS testing kit was purchased from Promega (Madison, WI, USA). The RPMI-1640, Fetal bovine serum and Penicillin-Streptomycin were purchased from BI (Biological Industries, Beit Haemek, Israel). Dimethyl sulfoxide (DMSO) was purchased from Sigma (St. Louis., MO, USA). Toledo (ATCC catalog #: CRL-2631) cells were cultured in RPMI-1640 supplemented with Penicillin-Streptomycin and 10% FBS.
# To investigate whether a compound is able to inhibit the activity of BCL-2 in cells, a mechanism-based assay using Toledo lines was developed. In this assay, the inhibition of BCL-2 was reflected by the inhibition of cell proliferation of Toledo cells. Cells were plated into 96-well plates at the optimized cell density of 30000 cells/well. Plates were incubated at 37° C., with 5% CO2 for 4 h. Compounds were serially diluted and added to the plates with the final concentrations of 10000, 3333.3, 1111.1, 370.4, 123.5, 41.2, 13.7, 4.6 and 1.5 nM. Plates were incubated at 37° C., with 5% CO2 for 72 h. 20 μl MTS was added into each well and the plates were incubated at 37° C., with 5% CO2 for exactly 2 h. The absorbance was measured by a microplate reader at 490 nm. IC50 was calculated using GraphPad Prism 5.0 software.
# [2] = tested on: RS4;11-BCL-2 G101V cells; test: Cell proliferation assay (MTS), RS4;11-BCL-2 G101V engineered cells; format: cell-based; details: Homo sapiens, 120 h, read-out: RS4, 11 BCL2-G101V IC50
# Source text: MTS testing kit was purchased from Promega (Madison, WI, USA). The RPMI-1640, Fetal bovine serum and Penicillin-Streptomycin were purchased from BI (Biological Industries, Beit Haemek, Israel). Puromycin was purchased from Beyotime (shanghai, China). Dimethyl sulfoxide (DMSO) was purchased from Sigma (St. Louis., MO, USA). RS4;11-BCL-2 G101V (Cobioer Lot. #: CBD2021063013P4), RS4;11-BCL-2 D103E (Cobioer Lot. #: CBD2021063013P4), RS4;11-BCL-2 D103Y (Cobioer Lot. #: CBD2022012101P4) and RS4;11-BCL-2 F104L (Cobioer Lot. #: CBD2021063014P4) cells were cultured in RPMI1640 supplemented with 1 ug/mL puromycin, 100 U/mL Penicillin-Streptomycin and 10% FBS.
# To investigate whether a compound is able to inhibit the activity of BCL-2 mutation in cells, a mechanism-based assay using engineered cell lines stably overexpressing BCL-2 mutation (RS4;11-BCL-2 G101V, RS4;11-BCL-2 D103E, RS4;11-BCL-2 D103Y, and RS4;11-BCL-2 F104L) was developed. In this assay, the inhibition of BCL-2 mutation was reflected by the inhibition of cell proliferation of engineered RS4;11 cells. Cells were plated into 96-well plates at optimized cell density (RS4;11-BCL-2 G101V: 5000 cells/well; RS4;11-BCL-2 D103E: 7500 cells/well; RS4;11-BCL-2 D103Y: 7500 cells/well; RS4;11-BCL-2 F104L: 5000 cells/well). Plates were incubated at 37° C., with 5% CO2 for 4 h (RS4;11-BCL-2 G101V, RS4;11-BCL-2 F104L) and 24 h (RS4;11-BCL-2 D103E, RS4;11-BCL-2 D103Y), respectively. Compounds were serially diluted and added to the plates with the final concentrations of 10000, 3333.3, 1111.1, 370.4, 123.5, 41.2, 13.7, 4.6 and 1.5 nM. Plates were incubated at 37° C., with 5% CO2 for 120 h (RS4; 11-BCL-2 G101V, RS4; 11-BCL-2 F104L) and 72 h (RS4;11-BCL-2 D103E, RS4;11-BCL-2 D103Y), respectively. 20 μl MTS was added into each well and the plates were incubated at 37° C., with 5% CO2 exactly for 2 h. The absorbance was measured by a microplate reader at 490 nm. IC50 values were calculated using GraphPad Prism 8.0 software.
IC50 [2] [nM],Structure (SMILES),IC50 [1] [nM]
1,"CC(C)c1ccccc1[C@@H]1CN(Cc2ccc(F)c(F)c2)CCN1C1CC2(CCN(c3ccc(C(=O)NS(=O)(=O)c4cnc(NC[C@H]5CC[C@](C)(O)CC5)c([N+](=O)[O-])c4)c(Oc4cnc5[nH]cc(F)c5c4)c3)CC2)C1 [Example 72, 4-(2-((R)-4-(3,4-difluorobenzyl)-2-(2-isopropylphenyl)piperazin-1-yl)-7-azaspiro[3.5]nonan-7-yl)-2-((3-fluoro-1H-pyrrolo[2,3-b]pyridin-5-yl)oxy)-N-((6-((((1r,4r)-4-hydroxy-4-methylcyclohexyl)methyl)amino)-5-nitropyridin-3-yl)sulfonyl)benzamide]",1
1,"COc1nc2[nH]cc(F)c2cc1Oc1cc(N2CCC3(CC2)CC(N2CCN(Cc4cc(F)c(OC)c(F)c4)C[C@H]2c2ccccc2C(C)C)C3)ccc1C(=O)NS(=O)(=O)c1cnc(NC[C@H]2CC[C@](C)(O)CC2)c([N+](=O)[O-])c1 [Example 107, 4-(2-((R)-4-(3,5-difluoro-4-methoxybenzyl)-2-(2-isopropylphenyl)piperazin-1-yl)-7-azaspiro[3.5]nonan-7-yl)-2-((3-fluoro-6-methoxy-1H-pyrrolo[2,3-b]pyridin-5-yl)oxy)-N-((6-((((1r,4r)-4-hydroxy-4-methylcyclohexyl)methyl)amino)-5-nitropyridin-3-yl)sulfonyl)benzamide]",1
1,"CCOc1nc2[nH]cc(F)c2cc1Oc1cc(N2CCC3(CC2)CC(N2CCN(CCOC)C[C@H]2c2ccccc2C(C)C)C3)ccc1C(=O)NS(=O)(=O)c1cnc(NC[C@H]2CC[C@](C)(O)CC2)c([N+](=O)[O-])c1 [Example 130, 2-((6-ethoxy-3-fluoro-1H-pyrrolo[2,3-b]pyridin-5-yl)oxy)-N-((6-((((1r,4r)-4-hydroxy-4-methylcyclohexyl)methyl)amino)-5-nitropyridin-3-yl)sulfonyl)-4-(2-((R)-2-(2-isopropylphenyl)-4-(2-methoxyethyl)piperazin-1-yl)-7-azaspiro[3.5]nonan-7-yl)benzamide]",1
1,"CCOc1nc2[nH]cc(F)c2cc1Oc1cc(N2CCC3(CC2)CC(N2CCN(C4COC4)C[C@H]2c2ccccc2C(C)C)C3)ccc1C(=O)NS(=O)(=O)c1cnc(NC[C@H]2CC[C@](C)(O)CC2)c([N+](=O)[O-])c1 [Example 132, 2-((6-ethoxy-3-fluoro-1H-pyrrolo[2,3-b]pyridin-5-yl)oxy)-N-((6-((((1r,4r)-4-hydroxy-4-methylcyclohexyl)methyl)amino)-5-nitropyridin-3-yl)sulfonyl)-4-(2-((R)-2-(2-isopropylphenyl)-4-(oxetan-3-yl)piperazin-1-yl)-7-azaspiro[3.5]nonan-7-yl)benzamide]",1
1,"CCOc1nc2[nH]cc(F)c2cc1Oc1cc(N2CCC3(CC2)CC(N2CCN(Cc4cnn(C5CC5)c4)C[C@H]2c2ccccc2C(C)C)C3)ccc1C(=O)NS(=O)(=O)c1cnc(NC[C@H]2CC[C@](C)(O)CC2)c([N+](=O)[O-])c1 [Example 134, 4-(2-((R)-4-((1-cyclopropyl-1H-pyrazol-4-yl)methyl)-2-(2-isopropylphenyl)piperazin-1-yl)-7-azaspiro[3.5]nonan-7-yl)-2-((6-ethoxy-3-fluoro-1H-pyrrolo[2,3-b]pyridin-5-yl)oxy)-N-((6-((((1r,4r)-4-hydroxy-4-methylcyclohexyl)methyl)amino)-5-nitropyridin-3-yl)sulfonyl)benzamide]",1
1,"CCOc1nc2[nH]cc(F)c2cc1Oc1cc(N2CCC3(CC2)CC(N2CCN(C)C[C@H]2c2ccccc2C(C)C)C3)ccc1C(=O)NS(=O)(=O)c1cnc(NC[C@H]2CC[C@](C)(O)CC2)c([N+](=O)[O-])c1 [Example 138, 2-((6-ethoxy-3-fluoro-1H-pyrrolo[2,3-b]pyridin-5-yl)oxy)-N-((6-((((1r,4r)-4-hydroxy-4-methylcyclohexyl)methyl)amino)-5-nitropyridin-3-yl)sulfonyl)-4-(2-((R)-2-(2-isopropylphenyl)-4-methylpiperazin-1-yl)-7-azaspiro[3.5]nonan-7-yl)benzamide]",1
